Data as given in ChEMBL document CHEMBL5241107, “Discovery of an eIF4A Inhibitor with a Novel Mechanism of Action” (J Med Chem, 2021).
Calls of active or inactive are those of the source. No cut-off for these calls is given here.

What was measured:
[1] = target: T1, Eukaryotic initiation factor 4A-I (Homo sapiens, UniProt P60842); experiment: Inhibition of human recombinant N-terminal His6-tagged eIF4A expressed in Escherichia coli BL21 CodonPlus cells using ATP and yeast RNA as substrate preincubated with enzyme for 20 mins followed by susbtrate addition and measured after 4 hrs by Malachite green ATPase assay
BJAB = experiment: Cytotoxicity against human BJAB cells assessed as reduction in cell viability measured after 72 hrs by CellTiter-Glo luminescent assay; format: functional, cell-based
Reticulocyte [2] = experiment: Inhibition of IRES-dependent translation of renilla luciferase in rabbit reticulocyte lysates using bicistronic luciferase reporter [pSP/(CAG)33/FF/HCV/Ren.pA51] at 600 uM incubated for 90 mins by luciferase reporter gene based luminescence analysis; format: functional, subcellular; conditions: Oryctolagus cuniculus
Reticulocyte [3] = experiment: Inhibition of cap-dependent translation of firefly luciferase in rabbit reticulocyte lysates using bicistronic luciferase reporter [pSP/(CAG)33/FF/HCV/Ren.pA51] at 600 uM incubated for 90 mins by luciferase reporter gene based luminescence analysis; format: functional, subcellular; conditions: Oryctolagus cuniculus
[4] = target: T1, Eukaryotic initiation factor 4A-I; experiment: Displacement of MANT-ATP from human recombinant N-terminal His6-tagged eIF4A expressed in Escherichia coli BL21 CodonPlus cells at 1 mM preincubated with enzyme and yeast RNA for 20 mins followed by MANT-ATP addition for 30 mins by fluorescence polarization assay; conditions: time 50.0 min
[5] = target: T1, Eukaryotic initiation factor 4A-I; experiment: Inhibition of helicase activity of human recombinant N-terminal His6-tagged eIF4A expressed in Escherichia coli BL21 CodonPlus cells assessed as increase in double stranded signal using Cy3-labeled RNA strand and unlabeled DNA strand by native PAGE analysis
[6] = target: T1, Eukaryotic initiation factor 4A-I; experiment: Inhibition of helicase activity of human recombinant N-terminal His6-tagged eIF4A expressed in Escherichia coli BL21 CodonPlus cells assessed as decrease in single stranded signal using Cy3-labeled RNA strand and unlabeled DNA strand by native PAGE analysis
[7] = target: T1, Eukaryotic initiation factor 4A-I; experiment: Inhibition of helicase activity of human recombinant N-terminal His6-tagged eIF4A expressed in Escherichia coli BL21 CodonPlus cells using Cy3-labeled RNA strand and unlabeled DNA strand by native PAGE analysis
[8] = target: T1, Eukaryotic initiation factor 4A-I; experiment: Uncompetitive inhibition of human recombinant N-terminal His6-tagged eIF4A expressed in Escherichia coli BL21 CodonPlus cells assessed as decrease in Km and Vmax of ATP using varying concentrations of ATP and 250 ug/ml yeast RNA as substrate preincubated with enzyme for 20 mins followed by substrate addition and measured after 1 to 7 hrs by Malachite green ATPase assay; conditions: time 80-440 min
[9] = target: T1, Eukaryotic initiation factor 4A-I; experiment: Competitive inhibition of human recombinant N-terminal His6-tagged eIF4A expressed in Escherichia coli BL21 CodonPlus cells assessed as […] with constant Vmax of RNA using 250 uM ATP and varying concentration of yeast RNA as substrate preincubated with enzyme for 20 mins followed by substrate addition and measured after 1 to 7 hrs by Malachite green ATPase assay; conditions: time 80-440 min
[10] = target: T1, Eukaryotic initiation factor 4A-I; experiment: Binding affinity to eIF4A in human A549 cells assessed as increase in thermal stability of the protein at 100 nM incubated for 90 mins by CETSA analysis; format: cell-based
Reticulocyte [11] = experiment: Inhibition of IRES-dependent translation of renilla luciferase in rabbit reticulocyte lysates using bicistronic luciferase reporter [pSP/(CAG)33/FF/HCV/Ren.pA51] at 100 nM incubated for 90 mins by luciferase reporter gene based luminescence analysis; format: functional, subcellular; conditions: Oryctolagus cuniculus
Reticulocyte [12] = experiment: Inhibition of eIF4A in rabbit reticulocyte lysate assessed as inhibition of cap-dependent translation of firefly luciferase using bicistronic luciferase reporter [pSP/(CAG)33/FF/HCV/Ren.pA51] at 100 nM incubated for 90 mins by luciferase reporter gene based luminescence analysis; format: subcellular; conditions: Oryctolagus cuniculus
[13] = Homo sapiens, BJAB, 72 h, read-out: EC50

T1 sequence (P60842 whole entry): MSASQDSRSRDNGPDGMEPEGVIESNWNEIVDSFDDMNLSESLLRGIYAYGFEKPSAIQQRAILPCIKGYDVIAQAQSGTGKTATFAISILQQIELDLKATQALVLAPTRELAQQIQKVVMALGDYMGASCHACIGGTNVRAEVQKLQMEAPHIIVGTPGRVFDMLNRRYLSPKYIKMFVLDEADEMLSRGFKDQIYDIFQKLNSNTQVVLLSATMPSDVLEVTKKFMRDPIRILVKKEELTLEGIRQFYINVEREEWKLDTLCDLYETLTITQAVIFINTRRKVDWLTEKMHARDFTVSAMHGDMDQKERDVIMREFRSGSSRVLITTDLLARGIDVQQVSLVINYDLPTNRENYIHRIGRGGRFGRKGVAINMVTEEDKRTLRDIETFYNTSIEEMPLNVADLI

SMILES	IC50 [1] [µM]	further results
CCCCc1ccc(-c2ccc(-c3cc(C(=O)O)c4cc([N+](=O)[O-])ccc4n3)cc2)cc1	54.8	–
Nc1ccc(-c2ccc(-c3cc(C(=O)O)c4cc([N+](=O)[O-])ccc4n3)o2)cc1	> 150	EC50 (BJAB; bjab): Not Active
CC(C)(C)OC(=O)Nc1cccc(-c2ccc(-c3cc(C(=O)O)c4cc([N+](=O)[O-])ccc4n3)o2)c1	110	–
O=C(O)c1cc(-c2ccc(-c3ccccc3Oc3ccccc3)o2)nc2ccc([N+](=O)[O-])cc12	21	–
C[C@@H]1C[C@@H]([C@H](O)CC2CC(=O)NC(=O)C2)C(=O)[C@@H](C)C1	–	inhibition (Reticulocyte [2]): Active; inhibition (Reticulocyte [3]): Active
CCCCc1ccc(-c2ccc(-c3cc(C(=O)O)c4cc(OC)ccc4n3)o2)cc1	53.5	–
CCCCc1ccc(-c2ccc(-c3cc(C(=O)O)c4cc(F)ccc4n3)o2)cc1	54.1	–
CCCCc1ccc(-c2cccc(-c3cc(C(=O)O)c4cc([N+](=O)[O-])ccc4n3)n2)cc1	85.8	–
O=C(O)c1cc(-c2ccc(-c3cccc(Oc4ccccc4)c3)o2)nc2ccc([N+](=O)[O-])cc12	22.2	–
O=C(O)c1cc(-c2ccc(-c3ccc4c(c3)OCO4)o2)nc2ccc([N+](=O)[O-])cc12	> 150	–
CCCOc1ccccc1-c1ccc(-c2cc(C(=O)O)c3cc([N+](=O)[O-])ccc3n2)o1	45.5	–
CCCCc1ccc(-c2ccc(-c3cc(C(=O)O)c4cc(C(C)C)ccc4n3)o2)cc1	107	–
O=C(O)c1cc(-c2ccc(-c3cccc4ccccc34)o2)nc2ccc([N+](=O)[O-])cc12	36.7	–
CCCCc1ccc(-c2ccc(-c3cc(C(=O)O)c4cc(-c5ccccc5)ccc4n3)o2)cc1	124	–
CCCCc1ccc(-c2ccc(-c3cc(C(=O)O)c4cc(NC(C)=O)ccc4n3)o2)cc1	126	EC50 (BJAB; bjab): Not Active
CCCCc1ccc(-c2ccc(-c3cc(C(=O)O)c4cccc(C(F)(F)F)c4n3)o2)cc1	26.9	–
CCCCCc1ccc(-c2ccc(-c3cc(C(=O)O)c4cc([N+](=O)[O-])ccc4n3)o2)cc1	8.77	–
CCCOc1cccc(-c2ccc(-c3cc(C(=O)O)c4cc([N+](=O)[O-])ccc4n3)o2)c1	62.1	–
Nc1cccc(-c2ccc(-c3cc(C(=O)O)c4cc([N+](=O)[O-])ccc4n3)o2)c1	> 150	EC50 (BJAB; bjab): Not Active
CCCCc1ccc(-c2ccc(-c3cc(C(=O)O)c4cc([N+](=O)[O-])ccc4n3)s2)cc1	62.3	–
CCCCc1ccc(-c2ccc(-c3cc(C(=O)O)c4ccc(F)cc4n3)o2)cc1	46.6	–
CCCCc1ccc(-c2ccc(-c3cc(C(=O)O)c4cc(Cl)c(Cl)cc4n3)o2)cc1	90.1	–
CCCCc1ccc(-c2ccc(-c3cc(C(=O)O)c4cc([N+](=O)[O-])ccc4n3)cn2)cc1	60	–
CCCCc1ccc(-c2cccc(-c3cc(C(=O)O)c4cc([N+](=O)[O-])ccc4n3)c2)cc1	74.1	–
CCCCc1ccc(-c2ccc(-c3cc(C(=O)O)c4cccc([N+](=O)[O-])c4n3)o2)cc1	–	EC50 [1]: 27.5 µM
CCCCc1ccc(-c2cncc(-c3cc(C(=O)O)c4cc([N+](=O)[O-])ccc4n3)c2)cc1	> 150	–
O=C(O)c1cc(-c2ccc(-c3ccc(-c4ccccc4)cc3)o2)nc2ccc([N+](=O)[O-])cc12	66.1	–

SMILES	IC50 [1] [µM]	further results
CCCCc1ccc(-c2ccc(-c3cc(C(=O)O)c4cc(C)cc(C)c4n3)o2)cc1	111	–
CCCCc1ccc(-c2ccc(-c3cc(C(=O)O)c4cc([N+](=O)[O-])ccc4n3)[nH]2)cc1	62.5	–
CCCCc1ccc(-c2ccc(-c3cc(C(=O)O)c4cccc(Cl)c4n3)o2)cc1	73.3	–
O=C(O)c1cc(-c2ccc(-c3ccccc3)o2)nc2ccc([N+](=O)[O-])cc12	> 150	–
CCCCc1ccc(-c2ccc(-c3cc(C(=O)O)c4cc(OC(F)(F)F)ccc4n3)o2)cc1	> 150	–
CCCOc1ccc(-c2ccc(-c3cc(C(=O)O)c4cc([N+](=O)[O-])ccc4n3)o2)cc1	45.7	–
Nc1ncnc2c1ncn2[C@@H]1O[C@H](COP(=O)(O)OP(=O)(O)O)[C@@H](O)[C@H]1O	–	inhibition [4]: Active
CCCCc1ccc(-c2ccc(-c3cc(C(=O)O)c4cc(Cl)ccc4n3)o2)cc1	44	–
CCCCc1ccc(-c2ccc(-c3cc(C(=O)O)c4cc(N)ccc4n3)o2)cc1	> 150	EC50 (BJAB; bjab): Not Active
CCCCc1ccc(-c2ccc(-c3cc(C(=O)O)c4ccc(Br)cc4n3)o2)cc1	33	–
CCCCc1ccc(-c2ccc(-c3cc(C(=O)O)c4cc(Br)ccc4n3)o2)cc1	–	inhibition [5]: Active; inhibition [6]: Active; EC50 (BJAB; [13]): 2.13 µM; IC50 [7]: 28.7 µM; inhibition [8]: Active; inhibition [9]: Active
CCCCc1ccc(-c2ccc(-c3cc(C(=O)O)c4cc(I)ccc4n3)o2)cc1	41.5	–
CCCCc1ccc(-c2ccc(-c3cc(C(=O)O)c4cc(C)ccc4n3)o2)cc1	105	–
COC(=O)[C@H]1[C@@H](O)[C@@]2(O)c3c(OC)cc(O[C@@H]4O[C@@H]([C@H](O)CO)CO[C@H]4OC)cc3O[C@@]2(c2ccc(OC)cc2)[C@@H]1c1ccccc1	–	Activity [10]: Active; inhibition (Reticulocyte [11]): inactive; inhibition (Reticulocyte [12]): Active
CCCCc1ccc(-c2ccc(-c3cc(C(=O)O)c4c(Cl)cccc4n3)o2)cc1	135	–
CC(C)(C)OC(=O)Nc1ccc(-c2ccc(-c3cc(C(=O)O)c4cc([N+](=O)[O-])ccc4n3)o2)cc1	140	–
CCCCc1ccc(-c2ccc(-c3cc(C(=O)O)c4cc(F)c(F)cc4n3)o2)cc1	54	–
CCCc1ccc(-c2ccc(-c3cc(C(=O)O)c4cc([N+](=O)[O-])ccc4n3)o2)cc1	40.9	–
CCCCc1ccc(-c2ccc(-c3cc(C(=O)OCC)c4cc([N+](=O)[O-])ccc4n3)o2)cc1	> 150	EC50 (BJAB; [13]): > 10 µM
CCCCc1ccc(-c2ccc(-c3cc(C(=O)O)c4ccc(C(F)(F)F)cc4n3)o2)cc1	61	–
CCCCc1ccc(-c2ccc(-c3cc(C(=O)OCC)c4cc(Br)ccc4n3)o2)cc1	129	–
CCCCc1ccc(-c2ccc(-c3cc(C(=O)O)c4cc(CC)ccc4n3)o2)cc1	147	–
O=C(O)c1cc(-c2ccc(-c3cccc(-c4ccccc4)c3)o2)nc2ccc([N+](=O)[O-])cc12	25.8	–
CCCCc1ccc(-c2ccc(-c3cc(C(=O)O)c4cccc(Br)c4n3)o2)cc1	23.8	–
CCCCc1ccc(-c2ccc(-c3cc(C(=O)O)c4ccccc4n3)o2)cc1	> 150	–
O=C(O)c1cc(-c2ccc(-c3ccc(Oc4ccccc4)cc3)o2)nc2ccc([N+](=O)[O-])cc12	12.7	–
